Laboratory results reported in patent US9512139B2, “Conformationally constrained, fully synthetic macrocyclic compounds” (POLYPHOR AG, priority 2009, dated 2016).
Where two headings read alike, the source gives them in different places.

How the values were obtained:
[1] = Metabolic stability assay, human microsomes; assay type: in vitro ADME; conditions: human, microsomes; for Metabolic Stability 60 min hum [% remain.]: 1 h
[2] = in vitro; assay type: in vitro ADME, human; conditions: human, plasma, 10 µM; for Plasma Stability 240 min hum [% remain.]: 4 h
[3] = Metabolic stability assay, rat microsomes (values in parentheses); assay type: in vitro ADME; conditions: value in parentheses
[4] = Pharmacokinetic study after single i.v. and p.o. administration in male SD rats; assay type: in vivo; conditions: rat; for Cmax / Tmax / C0 / half-life / bioavailability: male, SD, plasma; for C0: extrapolated to tzero; for half-life: read-out: T1/2 (terminal) (converted)
Protocol: 5. Pharmacokinetic Study (PK) Analysis
Pharmacokinetic analyses after single intravenous (i.v.) and two different peroral (p.o.) administrations were performed for the test compounds. 240 grams (±10 gram) male SD rats were catheterized and used in the study. The vehicle, Solutol HS-15/0.9% saline (5:95), was added to give a final concentration of 0.33 mg/ml of the compounds for i.v. application, and 0.5 or 2.0 mg/ml for p.o. applications. The volumes used for applications were 3 ml/kg i.v. and 10 ml/kg p.o. resulting in a final dose of 1 mg/kg for the intravenous dose and 5 or 20 mg/kg for the peroral doses.
Blood samples were withdrawn via the catheter at 1) predose, 5, 15, 30, 60, 120, 240, and 480 minutes for the i.v. application and 2) predose, 15, 30, 60, 120, 240, 480 and 720 minutes for the p.o. applications. Plasma was prepared by centrifugation of heparinized whole blood. Plasma samples (˜120 μl each time point, Li-Heparin, 20 IE/ml) were stored at −80° C. until HPLC-MSMS analysis.
Preparation of the Plasma Calibration Samples:
“Blank” rat plasma from untreated animals was used. Aliquots of plasma of 50 μL each were spiked with Internal Standard (ISTD) and with known amounts test compounds in order to obtain 11 plasma calibration samples in the range 0.25-4000 ng/mL.
Preparation of Plasma Samples:
To 50 μL of sample from treated animals 20 μL of internal standard were added. After mixing with 200 μL of acetonitrile, 2% HCOOH were added and each sample was vortexed for several seconds. Precipitated material was removed by centrifugation for 10 min (13200 rpm), the supernatant removed and dried under a constant flow of N2 (Porvair, MiniVap). To reconstitute the dried samples, 200 μL of [DMSO/acetonitrile/H2O, 4/4/2 (v/v/v)+2% HCOOH] were added and the sample was shaken for at least 5 minutes.
LC-MSMS Analysis of Samples:
Reconstituted samples were analysed by HPLC/MSMS on a reverse phase analytical column (BEH C18, 100×2.1 mm, 1.7 μm, Waters). Mobile phase A: H2O/acetonitrile (95:5, v:v) 0.1% formic acid, mobile phase B: Acetonitrile/H2O (95:5, v:v) 0.1% formic acid. Compounds were eluted from the column by using a gradient from 1% B to 60% B in 2.5 min.).
Pharmacokinetic Evaluation:
PK analysis was performed on mean values (generally n=3) using WinNonLin software (Version 5.3, Pharsight Corporation). The area under the curve AUC was calculated by the linear trapezoidal rule (linear interpolation, uniform weighting). AUC(t-∞) was estimated as Ct/b (b: elimination rate constant). […] the sum of AUC(0-t) and AUC(t-∞). Elimination half-life was calculated by the linear regression on at least three data points during the elimination phase. The time intervals selected for the half-life determinations were evaluated by the correlation coefficient (r^2), which should be at least above 0.85 and ideally above 0.96.
In case of i.v. administration the initial concentration at tzero was determined by extrapolation of the curve through the first two time points. Finally bioavailability after p.o. administration was calculated from the dose normalized AUC(0-∞) ration after p.o. versus i.v. administration.

[5] = Metabolic stability assay, CD-1 mouse microsomes; assay type: in vitro ADME; conditions: both, CD-1, mouse, microsomes, 10 µM; for Metabolic Stability 60 min mouse [% remain.]: 1 h
[6] = in vitro; assay type: in vitro ADME, mouse; conditions: both, CD-1, mouse, plasma, 10 µM; for Plasma Stability 240 min mouse [% remain.]: 4 h
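Throughout, for Plasma Stability 240 min mouse [% remain.]: sodium citrate stabilized mouse plasma, parent compound quantified by HPLC/MS/MS relative to its peak area at time zero, run in triplicate.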
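Throughout, for Plasma Stability T½ [min] mouse: sodium citrate stabilized mouse plasma, parent compound quantified by HPLC/MS/MS relative to its peak area at time zero, run in triplicate.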

## CN1CCC[C@H](N)C(=O)N2C[C@@H](Oc3ccccc3)C[C@H]2COc2cccc(c2)C1=O [Ex. 561, (4S,6S,10S)-10-amino-14-methyl-6-phenoxy-2-oxa-8,14-diazatricyclo[14.3.1.0^4,8]icosa-1(20),16,18-triene-9,15-dione]
[1]; both sexes
  half-life at 10 µM: 0.65 h
[1]; both, 10 µM
  Metabolic Stability 60 min hum [% remain.]: 42 % remain.
[2]
  Plasma Stability T½ [min] hum: > 240 min
  Plasma Stability 240 min hum [% remain.]: 99 % remain.
[3]
  Metabolic Stability 60 min (rat) [% remain.]: 53 % remain.
[3]; read-out: Metabolic Stability T½ [min] (rat)
  half-life at 10 µM: 56 min
[4]; iv, 1 mg/kg
  Cmax: 184 ng/mL
  Tmax: 0.08 h
  C0: 240 ng/mL
  half-life: 2.11 h
  AUC(t-∞) dose normalized: 219.89 kg·ng·h/mL/mg
  Cmax dose normalized: 183.67 kg·ng/mL/mg
  V (terminal): 13.8314 L/kg
[4]; po, 5 mg/kg
  Cmax: 67 ng/mL
  Tmax: 0.5 h
  bioavailability: 10.9%
  half-life: 3 h
  AUC(t-∞) dose normalized: 24.00 kg·ng·h/mL/mg
  Cmax dose normalized: 13.40 kg·ng/mL/mg
[4]; po, 20 mg/kg
  Cmax: 248 ng/mL
  Tmax: 0.25 h
  bioavailability: 16.8%
  half-life: 2.71 h
  AUC(t-∞) dose normalized: 36.88 kg·ng·h/mL/mg
  Cmax dose normalized: 12.40 kg·ng/mL/mg
[5]
  Metabolic Stability T½ [min] mouse: > 60 min
  Metabolic Stability 60 min mouse [% remain.]: 79 % remain.
[6]
  Plasma Stability T½ [min] mouse: > 240 min
  Plasma Stability 240 min mouse [% remain.]: 100 % remain.

## CN1CCC[C@H](N)C(=O)N2C[C@@H](OCc3ccccc3)C[C@H]2COc2cccc(c2)C1=O [Ex. 568, (4S,6S,10S)-10-amino-6-(benzyloxy)-14-methyl-2-oxa-8,14-diazatricyclo[14.3.1.0^4,8]icosa-1(20),16,18-triene-9,15-dione]
[1]; both, 10 µM
  Metabolic Stability T½ [min] hum: > 60 min
  Metabolic Stability 60 min hum [% remain.]: 53 % remain.
[2]
  Plasma Stability T½ [min] hum: > 240 min
  Plasma Stability 240 min hum [% remain.]: 97 % remain.
[3]
  Metabolic Stability 60 min (rat) [% remain.]: 57 % remain.
  Metabolic Stability T½ [min] (rat): 60 (60) min
[4]; iv, 1 mg/kg
  Cmax: 195 ng/mL
  Tmax: 0.08 h
  C0: 285 ng/mL
  half-life: 1.67 h
  AUC(t-∞) dose normalized: 167.93 kg·ng·h/mL/mg
  Cmax dose normalized: 194.67 kg·ng/mL/mg
  V (terminal): 14.32056 L/kg
[4]; po, 5 mg/kg
  Cmax: 64.3 ng/mL
  Tmax: 0.25 h
  bioavailability: 17.8%
  half-life: 1.92 h
  AUC(t-∞) dose normalized: 29.83 kg·ng·h/mL/mg
  Cmax dose normalized: 12.87 kg·ng/mL/mg
[4]; po, 20 mg/kg
  Cmax: 380 ng/mL
  Tmax: 0.25 h
  bioavailability: 21.6%
  half-life: 2.07 h
  AUC(t-∞) dose normalized: 36.22 kg·ng·h/mL/mg
  Cmax dose normalized: 18.98 kg·ng/mL/mg
[5]
  Metabolic Stability T½ [min] mouse: > 60 min
  Metabolic Stability 60 min mouse [% remain.]: 60 % remain.
[6]
  Plasma Stability T½ [min] mouse: > 240 min
  Plasma Stability 240 min mouse [% remain.]: 89 % remain.
